Activity calls are given as the source filed them.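 Rule for the calls: active = inhibition of 30% or more against both LYPLA2 panels while inhibition against LYPLA1 stays below 30%; inactive = under 30% on either LYPLA2 panel, or 30%+ on LYPLA1.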
Legend:
Assay in all cases: LYPLA2 and LYPLA1 inhibition in proteome, late-stage follow-up, selectivity assay for LYPLA2 selective inhibitor project, cell lysate, gel-based ABPP, FP-Rh fluorescence, mouse brain membrane proteome (AID 652030)
[1] = target: Acyl-protein thioesterase 2 (Mus musculus) (UniProt Q9WTL7); conditions: emLYPLA2, at 10 µM, active compounds read high
[2] = target: Acyl-protein thioesterase 1 (Mus musculus) (UniProt P97823); conditions: emLYPLA1, at 10 µM, active compounds read high
[3] = target: Acyl-protein thioesterase 2 (Homo sapiens) (UniProt O95372); conditions: rhLYPLA2, at 10 µM, active compounds read high
Acyl-protein thioesterase 2 (Homo sapiens), sequence (O95372 whole entry, looked up): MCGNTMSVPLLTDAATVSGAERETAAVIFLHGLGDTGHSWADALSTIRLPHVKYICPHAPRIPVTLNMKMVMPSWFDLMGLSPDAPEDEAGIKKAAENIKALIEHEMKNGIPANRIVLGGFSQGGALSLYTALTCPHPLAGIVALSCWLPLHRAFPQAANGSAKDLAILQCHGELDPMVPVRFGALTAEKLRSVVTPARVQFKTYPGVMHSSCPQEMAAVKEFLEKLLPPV

| Compound | inhibition [1] | inhibition [2] | inhibition [3] |
| --- | --- | --- | --- |
| CC(=O)c1ccc(N2CCN(C(=O)C3CCN(S(=O)(=O)c4ccc5c(c4)CC(C)N5C(C)=O)CC3)CC2)cc1 (centres undefined) | 10% (inactive) | 18% (inactive) | 8% (inactive) |
| O=C(CN1C(=O)S/C(=C\c2ccc(C(=O)O)cc2)C1=O)Nc1ccccc1 | 8% (inactive) | 7% (inactive) | 8% (inactive) |
| CCN(CC)S(=O)(=O)c1ccc(N2CCOCC2)c(NC(=O)COc2ccc(C#N)cc2)c1 | 0% (inactive) | 12% (inactive) | 3% (inactive) |
| COc1ccc(OC)c(-c2cc(C(=O)Nc3c(C)nn(Cc4ccccc4)c3C)no2)c1 | 0% (inactive) | 15% (inactive) | 3% (inactive) |
| Cc1nc(-c2ccc(S(=O)(=O)N3CCCN(CCc4ccccc4)CC3)s2)cs1 | 0% (inactive) | 7% (inactive) | 8% (inactive) |
| COc1ccc(OC)c(-c2cc(C(=O)Nc3c(C)nn(Cc4ccccc4C)c3C)no2)c1 | 0% (inactive) | 6% (inactive) | 8% (inactive) |
| COc1ccccc1-n1cc(C(=O)NCC(=O)N2CCN(Cc3ccccc3)CC2)c2ccccc2c1=O | 15% (inactive) | 0% (inactive) | 14% (inactive) |
| CC(=O)N1c2ccc(S(=O)(=O)N3CCC(C(=O)N4CCN(c5ccc(Cl)cc5)CC4)CC3)cc2CC1C (centres undefined) | 26% (inactive) | 3% (inactive) | 32% |
| COc1ccc(-n2nc(C(=O)NCC(=O)N3CCN(c4cccc(Cl)c4)CC3)c3ccccc3c2=O)c(OC)c1 | 41% | 33% | 52% |
| Cc1ccccc1NC(=O)CN1C(=O)S/C(=C\c2cccn2-c2cccc(C(=O)O)c2)C1=O | 13% (inactive) | 0% (inactive) | 4% (inactive) |
| COc1ccc(-n2nc(C(=O)NCC(=O)N3CCN(Cc4ccc5c(c4)OCO5)CC3)c3ccccc3c2=O)cc1OC | 23% (inactive) | 0% (inactive) | 26% (inactive) |
| O=C(O)c1cccc(N2C(=O)c3ccc(Oc4ccc(Cl)cc4)cc3C2=O)c1 | 11% (inactive) | 25% (inactive) | 7% (inactive) |
| CON=Cc1ccc(N2CCN(C(=O)c3cccc(C(F)(F)F)c3)CC2)c([N+](=O)[O-])c1 | 14% (inactive) | 14% (inactive) | 14% (inactive) |
| Cc1cccc(NC(=O)CN2C(=O)S/C(=C\c3cccn3-c3cccc(C(=O)O)c3)C2=O)c1 | 77% | 17% (inactive) | 66% |
| COc1ccc(N2CCN(C(=O)c3ccc(C(C)(C)C)cc3)CC2)cc1 | 47% | 16% (inactive) | 57% |
| COc1ccc(/C=C2\SC(=O)N(CC(=O)Nc3ccc(F)cc3)C2=O)cc1O | 24% (inactive) | 15% (inactive) | 16% (inactive) |
| Cc1cccc(NC(=O)CN2C(=O)S/C(=C\c3cc(C)n(C)c3C)C2=O)c1 | 40% | 9% (inactive) | 51% |
| COc1ccc2c(c1)C(=O)[C@@H](O)[C@H](c1ccc(OC)c(Br)c1)O2 | 31% | 13% (inactive) | 20% (inactive) |
| CCCCCCCCCC(=O)Nn1cnc2ccccc2c1=O | 12% (inactive) | 28% (inactive) | 4% (inactive) |
| Cc1ccc(Oc2ccc3c(c2)C(=O)N(c2ccc(S(=O)(=O)Nc4nccs4)cc2)C3=O)cc1 | 6% (inactive) | 14% (inactive) | 9% (inactive) |
| Cc1nc([N+](=O)[O-])cn1CC(=O)Nc1ccc(F)c(Cl)c1 | 15% (inactive) | 0% (inactive) | 10% (inactive) |
| O=C(Cn1cnc2ccccc2c1=O)c1ccc(OC(F)F)cc1 | 8% (inactive) | 5% (inactive) | 7% (inactive) |
| O=C(NC(=S)Nc1sc2c(c1C(=O)O)CCCC2)c1ccccc1 | 43% | 34% | 32% |
| O=C(N1CCOCC1)n1nnc2ccccc21 | 54% | 103% | 47% |

| Compound | inhibition [1] | inhibition [2] | inhibition [3] |
| --- | --- | --- | --- |
| COc1cc(C2Oc3cc(C4Oc5cc(O)cc(O)c5C(=O)C4O)ccc3OC2CO)ccc1O (centres undefined) | 19% (inactive) | 10% (inactive) | 14% (inactive) |
| COc1ccc(N2CCN(C(=O)C3CCC(Cn4c(=S)[nH]c5ccccc5c4=O)CC3)CC2)cc1 (centres undefined) | 44% | 16% (inactive) | 47% |
| Cc1ccc(NC(=O)Cn2c([N+](=O)[O-])cnc2C)cc1Cl | 8% (inactive) | 0% (inactive) | 8% (inactive) |
| COc1ccc2c(c1)C(=O)[C@H](O)[C@@H](c1ccc(OC)c(Br)c1)O2 | 55% | 23% (inactive) | 47% |
| COc1ccc(-c2noc(CCC(=O)N3CCN(c4cccc(C(F)(F)F)c4)CC3)n2)cc1 | 14% (inactive) | 1% (inactive) | 2% (inactive) |
| CC(=O)c1ccc(N2CCN(C(=O)C3CCN(S(=O)(=O)c4ccc5c(c4)CC(C)N5C(=O)C4CC4)CC3)CC2)cc1 (centres undefined) | 19% (inactive) | 18% (inactive) | 10% (inactive) |
| O=C(NCC1CCN(c2ccc(S(=O)(=O)N3CCOCC3)cc2)CC1)c1ccc(Cl)cc1 | 9% (inactive) | 3% (inactive) | 9% (inactive) |
| COc1ccc(-n2nc(C(=O)NCC(=O)N3CCN(Cc4ccccc4)CC3)c3ccccc3c2=O)c(OC)c1 | 15% (inactive) | 0% (inactive) | 18% (inactive) |
| O=C(O)c1ccc(CN2C(=O)c3ccc(Oc4ccc([N+](=O)[O-])cc4)cc3C2=O)cc1 | 4% (inactive) | 6% (inactive) | 7% (inactive) |
| C/C(C=NNC(=O)Cn1nnc(N)n1)=C\c1ccc(C(C)C)cc1 | 0% (inactive) | 0% (inactive) | 2% (inactive) |
| O=C(c1ccc2n[nH]nc2c1)N1CCN(c2ccc(C(F)(F)F)cn2)CC1 | 35% | 40% | 26% (inactive) |
| COc1cc(/C=C2\SC(=O)N(CC(=O)Nc3cccc(C)c3)C2=O)ccc1OC(C)C(=O)O (centres undefined) | 37% | 28% (inactive) | 58% |
| O=C(Nc1ccc(N2CCN(C(=O)c3ccco3)CC2)c(Cl)c1)c1c(F)c(F)c(F)c(F)c1F | 0% (inactive) | 18% (inactive) | 5% (inactive) |
| O=[N+]([O-])c1ccc(Oc2cccc(Br)c2)c2ccncc12 | 0% (inactive) | 13% (inactive) | 2% (inactive) |
| O=C1Nc2ccc([N+](=O)[O-])cc2OC1CCN1CCN(Cc2ccc3c(c2)OCO3)CC1 (centres undefined) | 21% (inactive) | 27% (inactive) | 9% (inactive) |
| Cc1ccc(N/C=C(\C#N)c2ccc(OCCCF)cc2)cc1 | 13% (inactive) | 17% (inactive) | 5% (inactive) |
| COc1ccccc1-c1nnc(C2CCN(S(=O)(=O)c3ccc([N+](=O)[O-])cc3)CC2)o1 | 5% (inactive) | 16% (inactive) | 9% (inactive) |
| O=C(Cc1ccc([N+](=O)[O-])cc1)N1CCN(c2ccc([N+](=O)[O-])cc2)CC1 | 0% (inactive) | 0% (inactive) | 0% (inactive) |
| CS(=O)(=O)Nc1ccc(N2CCN(c3ccc(C(F)(F)F)cn3)CC2)nc1 | 1% (inactive) | 0% (inactive) | 8% (inactive) |
| O=C(COc1ccc(Cl)cc1Cl)N1CCN(C/C=C/c2ccccc2)CC1 | 0% (inactive) | 0% (inactive) | 2% (inactive) |
| Cc1cccc(N2CCN(C(=O)Cc3ccc(-n4c(=O)[nH]c5ccsc5c4=O)cc3)CC2)c1C | 0% (inactive) | 14% (inactive) | 4% (inactive) |
| COc1ccc(N2CCN(C(=O)c3cc4c(s3)-c3ccccc3S(=O)(=O)C4)CC2)cc1 | 74% | 25% (inactive) | 79% |
| CC(CCC(C)C)=NNC(=S)Nc1cc(S(=O)(=O)N2CCOCC2)ccc1N1CCOCC1 | 16% (inactive) | 19% (inactive) | 8% (inactive) |
| COc1cc(C=NNC(=O)C(NC(=O)c2ccccc2)c2n[nH]c(=O)c3ccccc23)ccc1OCC(N)=O (centres undefined) | 3% (inactive) | 14% (inactive) | 9% (inactive) |

Source: PubChem BioAssay AID652030 (The Scripps Research Institute Molecular Screening Center, 2013)
